Experimental data: patent US20050143453A1, “Selective preventing and therapeutic agents for progressive lesion after organic damage” (priority 2000, published 2005)
Like-named read-outs stand apart in the source and are kept apart here.

Columns and labels:
[1] = test system: induction of effector macrophage by contact of human PBMC with mitomycin-treated human PBMC (allo-MLC); assay: SPFC production by allo-MLC stimulation (Test Example 2); format: cell-based; settings: for functional group (selective suppression of SPFC production by allo-MLC or LPS stimulation): summary of Table 1
[2] = test system: induction of effector macrophage by contact of human PBMC with lipopolysaccharide; assay: SPFC production by LPS stimulation (Test Example 1); format: cell-based
Description: A suppressive effect of the test compound to effector macrophage induction was investigated in vitro by an induction and production system of spontaneous plaque-forming cell (SPEC) mentioned in M. Ishibashi, S. Jiang, Y. Kokado, S. Takahara, T. Sonoda: Immunopharmacologic effects of immunosuppressive agents explored by a new effector generation assay. Transplant Proc., 21: 1854-1858, 1989.
Heparin-added peripheral blood (40 ml) was collected from a healthy person and the same amount of EDTA-added physiological saline was added. PBMC were obtained by a specific gravity centrifugal method using Ficoll-Hypaque (manufactured by Pharmacia Fine Chemicals). Self-plasma was added thereto and allowed to stand at 37° C. for 10 minutes and platelets were removed by a low-speed centrifugal separation. RPMI 1640 liquid containing 15 μg/ml of gentamicin and 2 mM L-glutamine was used for washing the PBMC. Concentration of the PBMC was adjusted to 2×10^6 cells/ml using the same liquid.
Each 200 μl of a solution containing 2×10^6 PBMC/ml prepared in the step 1 were added to each well of a micro test plate, lipopolysaccharide (hereinafter, abbreviated as LPS) was diluted with the RPMI 1640 liquid to make the final concentration 80 μg/ml and the said LPS solution was added to each well of the 200 μl-micro test plate. Further, each 50 μl of human serum of type AB were added so as to make the concentration 10% by weight. Two such micro test plates were prepared.
After that, to the above two micro test plates was added a solution where the test compound was diluted with 1% by weight of DMSO so as to make the concentration of the test compound 1 μM. Similarly were prepared each two micro test plates where the final concentrations of the test compound were 0.1 μM, 0.01 μM and 0.001 μM.
The culture liquid prepared as such was incubated for 6 days at 37° C. in 5% CO2.
The effector macrophage induced after the incubation was all recovered using a rubber-policeman (spatula made of rubber). A Hanks solution containing 5 μg/ml of gentamicin was used for washing and, using the said solution, there was prepared a solution where the concentration of the induced effector macrophage was 2×10^6 per ml.
With regard to autologous erythrocytes, those which were preserved at 4° C. in a phosphate physiological saline (hereinafter, abbreviated as PBS) to which 0.1% by weight of AB serum and autologous erythrocytes obtained from PBMC separation were used were used. The preserved autologous erythrocytes were washed for three times with a Hanks solution to which no serum was added and made into a solution of 4% by weight concentration using the said Hanks solution. Poly-L-lysine was added to a Terasaki plate and washed with PBS every 20 minutes at 37° C., the above-mentioned autologous erythrocyte solution was added thereto immediately, the mixture was allowed to stand at 37° C. for 30 minutes and the erythrocytes which were not adhered to the plate were removed to prepare a Terasaki plate to which self-erythrocytes in a monolayer were adhered.
A Hanks solution (4 μl) was added to the said Terasaki plate, 4 μl of a solution containing the induced effector macrophage obtained in the step 3 were added thereto and the mixture was allowed to stand at 37° C. for 2 hours. After completion of the reaction, it was fixed by formalin. Numbers of the produced SPFC which were adhered or phagocytized were measured.
A mean SPFC production number was calculated from the measured values of SPFC production when the concentration of the test compound was the same. SPFC production number per 1×10^6 of the induced effector macrophage was calculated and, from the recovered induced effector macrophage numbers, total SPFC production amount (S2) was calculated.
As a control, no test compound was added and the same operation as above was carried out to calculate the total SPFC production amount (S1). […]

[3] = test system: obstruction-released kidney of male SD rats; assay: Obstruction release model after complete obstruction of unilateral ureter for 14 days (UUO/Release, Test Example 3); format: in vivo, rat; set-up: key to Suppressive Effect to Glomerular Lesion / Suppressive Effect to Lesion of Tubulointerstitial Tissue: ∘: available; Δ: somewhat available; x: not available; settings: for Rate of Cases where Glomerular Lesion was Suppressed / Serum Creatinine level (mg/dl) on the 7th Day from Release of Obstruction / Weight of Kidney (g) on the 7th Day from Release of Obstruction / Rate of Cases where tubulointerstitial Lesion was Suppressed: Table 2
Description: Obstruction Release Model after Complete Obstruction of Unilateral Ureter for 14 Days
Experimental models were prepared by a method devised and established by Ishibashi (Michio Ishibashi, et al.: The Japanese Journal of Nephrology, 42: 248, 2000) using male SD rats of 8-9 weeks age and about 280 g. Thus, the rat was laparotomized under anesthetization with ether and ureter was ligated with 7-0 Nylon at the height of the margin of lower pole of left kidney to close the abdomen. On the 14th day after obstruction, the obstruction was released and urinary passage was reconstructed using a cuff. Thus, after 14 days, the part of ligated obstructed ureter was resected, a polyethylene tube of 25 gages (manufactured by Nippon Sherwood) was used as a cuff and inserted into and retained at the lumen from the cut end of the lower normal ureter, then the cuff was also retained in the expanded upper ureter and each of them was ligated and fixed by 7-0 Nylon to reconstruct the urinary passage. At the same time, the right kidney at the opposite side was excised. After the release of the obstruction, body weight was measured, blood was collected on the 2nd day, 5th day and 7th day from the release to measure serum creatinine, then the rat was sacrificed under anesthetization and the left obstruction-released kidney was excised. With regard to the excised kidney, there were carried out measurement of weight of the kidney and pathological test for the kidney.
An in vivo biological test was carried out for the γ-lactone derivatives according to the present invention using the above models. With regard to the test compound, bulk powder of the test compound was dissolved in an aseptic physiological saline together with gum arabic and the final concentration of gum arabic was 5%(vol/vol). The concentration of the test compound 30 mg/ml was suspended in 5% gum arabic-saline solution. The preparation was subcutaneously injected at the dose of 30 mg/kg every day throughout the experiment. With regard to the test compound, there were used (9-1), (4-2) and (7-3) as the compounds of group I suppressing the SPFC production by allo-MLC stimulation, i.e., the compounds which selectively suppress the induction of effector macrophage in the presence of allo-MLC while there was used (3-2) as the compound of group II suppressing the SPFC production by LPS stimulation, i.e., the compounds which selectively suppress the induction of effector macrophage in the presence of LPS.
In the Table, “functional classification” of the compound means the above group I, group II and group III. “Compound” means the compound bearing each of the above-mentioned compound numbers. The fact whether glomerular lesion was suppressed was judged by the ameriolation of the lesions such as thickness of wall of Bowman's capsule, hyperplasia of mesangial cells and glomerular sclerosis. The fact whether lesion of tubulointerstitial tissue was suppressed was judged by the ameriolation of the lesions such as thickness of basement membrane of tubules, cellular infiltration and fibrosis of interstitial tissue. In the table, “control” is the result when the same test as above was carried out using 5% gum arabic only which is a solvent.
In order to further confirm whether the preventive and therapeutic effect of the γ-lactone derivatives of the present invention to the target cell damage is selective, (7-3) of the group I and (6-1) of the group II were used as test compounds and they were subcutaneously injected at the dose of 30 mg/kg every day and compared with the control group. With regard to the control group, only 5% gum arabic which is a solvent was used and the same test as above was carried out.

[4] = 144 h, human PBMC with mitomycin-treated human PBMC, incubated 6 days, Table 1, read-out: SPFC Production Inhibiting Concentration by all-MLC Stimulation (μM: IC50)
[5] = Homo sapiens, Table 5, read-out: Inhibiting Concentration for SPEC Production by allo-MLC Stimulation (μM: IC50)
[6] = 144 h, human PBMC with LPS 80 μg/ml, incubated 6 days, Table 1, read-out: SPFC Production Inhibiting Concentration by LPS Stimulation (μM: IC50)
[7] = Homo sapiens, Table 5, read-out: Inhibiting Concentration for SPEC Production by LPS Stimulation (μM: IC50)
[8] = 30 mg/kg subcutaneously every day
[9] = Experimental Model of Rat: UUO/Release
[10] = Experimental Model of Rat: UUO/Release and CPN

SMILES	IC50 [1, 4] [µM]	functional group (selective suppression of SPFC production by allo-MLC or LPS stimulation) [1]	IC50 [2, 6] [µM]	also measured
CC(OC(=O)[C@@]1(Oc2ccc(F)cc2)CCC(=O)O1)c1ccc2ccccc2c1 (mixture of isomers) [(3-2), (RS)-(+)-α-methyl-2-naphthalene-methyl 2-(4-fluorophenoxy)-5-oxotetrahydrofuran-2-carboxylate]	> 1	group II	1	IC50 [1, 5]: > 1 µM; IC50 [2, 7]: 1 µM; selectivity of the suppressive effect on renal lesions [3, 8]: selective suppressive effect; suppression of glomerular lesion [3, 8]: suppressed the glomerular lesion only; suppression of lesion of tubulointerstitial tissue [3, 8]: did not suppress; Rate of Cases where Glomerular Lesion was Suppressed [3, 8]: 100% (5/5); Serum Creatinine level (mg/dl) on the 7th Day from Release of Obstruction [3, 8]: 2.0 ± 0.4 mg/dL; Weight of Kidney (g) on the 7th Day from Release of Obstruction [3, 8]: 4.36 ± 0.95 g; Suppressive Effect to Glomerular Lesion [3, 9]: ∘; Suppressive Effect to Lesion of Tubulointerstitial Tissue [3, 9]: x
CC(OC(=O)[C@]1(Oc2ccc(F)cc2)CCC(=O)O1)c1ccc2ccccc2c1 (mixture of isomers) [(4-2), (RS)-(+)-α-methyl-2-naphthalene-methyl 2-(4-fluorophenoxy)-5-oxotetrahydrofuran-2-carboxylate]	0.01	group I	> 1	IC50 [1, 5]: 0.01 µM; IC50 [2, 7]: > 1 µM; selectivity of the suppressive effect on renal lesions [3, 8]: selective suppressive effect; Rate of Cases where Glomerular Lesion was Suppressed [3, 8]: 50% (2/4); Rate of Cases where tubulointerstitial Lesion was Suppressed [3, 8]: 100% (4/4); Serum Creatinine level (mg/dl) on the 7th Day from Release of Obstruction [3, 8]: 2.7 ± 0.3 mg/dL; Weight of Kidney (g) on the 7th Day from Release of Obstruction [3, 8]: 3.94 ± 0.32 g; Suppressive Effect to Glomerular Lesion [3, 9]: Δ; Suppressive Effect to Lesion of Tubulointerstitial Tissue [3, 9]: ∘
CCOC(=O)C1(Oc2ccc(F)cc2)CCC(=O)O1 (racemic) [Conventional Compound, ethyl 2-(4-fluorophenoxy)-5-oxo-2-tetrahydrofurancarboxylate, reference compound]	0.1		0.1	IC50 [1, 5]: 0.1 µM; IC50 [2, 7]: 0.1 µM; selectivity of the suppressive effect on renal lesions [3, 8]: no selective suppression was observed; Rate of Cases where Glomerular Lesion was Suppressed [3, 8]: 75% (3/4); Rate of Cases where tubulointerstitial Lesion was Suppressed [3, 8]: 75% (3/4); Serum Creatinine level (mg/dl) on the 7th Day from Release of Obstruction [3, 8]: 2.2 ± 0.2 mg/dL; Weight of Kidney (g) on the 7th Day from Release of Obstruction [3, 8]: 2.73 ± 0.41 g; Suppressive Effect to Glomerular Lesion [3, 10]: ∘; Suppressive Effect to Lesion of Tubulointerstitial Tissue [3, 10]: ∘
O=C1CCC(Cc2ccc(F)cc2)(C(=O)O)O1 (stereo not drawn) [(5-2), 2-(4-fluorobenzyl)-5-oxo-tetrahydrofuran-2-carboxylic Acid]	0.1	group II	0.01	
O=C1CCC(Cc2ccccc2)(C(=O)OCc2ccccc2)O1 (stereo not drawn) [(5-4), Benzyl 2-benzyl-5-oxo-tetrahydrofuran-2-carboxylate]	0.01	group I	1	
N#CC1(C(=O)OCc2ccccc2)CCC(=O)O1 (stereo not drawn) [(6-3), Benzyl 2-cyano-5-oxotetrahydrofuran-2-carboxylate]	0.1	group II	0.001	
O=C1OC(O)(C(=O)OCc2ccccc2)c2ccccc21 (stereo not drawn) [(7-1), Benzyl 1-hydroxy-3-oxo-1,3-dihydroisobenzofuran-1-carboxylate]	0.1	group I	1	
O=C1OC(F)(C(=O)OCc2ccccc2)c2ccccc21 (stereo not drawn) [(7-2), Benzyl 1-fluoro-3-oxo-1,3-dihydro-isobenzofuran-1-carboxylate]	> 1	group II	0.1	
O=C1OC(Oc2ccc(F)cc2)(C(=O)OCc2ccccc2)c2ccccc21 (stereo not drawn) [(7-5), Benzyl 1-(4-fluorophenoxy)-3-oxo-1,3-dihydroisobenzofuran-1-carboxylate]	0.01	group I	> 1	
O=C1OC(Oc2ccc(F)cc2)(C(=O)O)c2ccccc21 (stereo not drawn) [(7-6), 1-(4-fluorophenoxy)-3-oxo-1,3-dihydro-isobenzofuran-1-carboxylic Acid]	> 1	group II	0.01	
O=C(O)C(=O)c1ccccc1C(=O)O [(7-7)]	> 1	group II	0.01	
O=C1CC[C@@](Oc2ccc(F)cc2)(C(=O)O)O1 [Compound (1), (−)-2-(4-fluorophenoxy)-5-oxotetrahydrofuran-2-carboxylic Acid]	0.01	group I	> 1	
